Tests used:
[1] = target: Interleukin-1 receptor-associated kinase 1 (Homo sapiens, UniProt P51617); assay: (§1) In vitro IRAK-1 and IRAK-4 Assay: Purified recombinant IRAK-4 protein was incubated with 250 uM synthetic peptide([…]) in 30 ul of kinase buffer including (20 mM MOPS pH7.2, 25 mM beta glycerol phosphate, 5 mM EGTA, 1 mM sodium orthovanadate, 1 mM DTT, 50 uM ATP, 20 mM MgCl2, 10 uCi gamma-33P, 0.1% BSA) for the indicated time. For purified recombinant IRAK-1 protein kinase assay, 50 uM ATP was used. A 25 ul aliquot of the reaction mixture was transferred on to p81 phosphocellulose squares (Upstate Biotechnology, Lake Placid, N.Y.). The assay squares were washed three times with 0.75% phosphoric acid and once with acetone. Enzyme activity was measured by determining the bound radioactivity by liquid scintillation counting.
[2] = target: T1, Interleukin-1 receptor-associated kinase 4 (Homo sapiens, UniProt Q9NWZ3); assay: as §1
T1 sequence (Q9NWZ3 whole entry): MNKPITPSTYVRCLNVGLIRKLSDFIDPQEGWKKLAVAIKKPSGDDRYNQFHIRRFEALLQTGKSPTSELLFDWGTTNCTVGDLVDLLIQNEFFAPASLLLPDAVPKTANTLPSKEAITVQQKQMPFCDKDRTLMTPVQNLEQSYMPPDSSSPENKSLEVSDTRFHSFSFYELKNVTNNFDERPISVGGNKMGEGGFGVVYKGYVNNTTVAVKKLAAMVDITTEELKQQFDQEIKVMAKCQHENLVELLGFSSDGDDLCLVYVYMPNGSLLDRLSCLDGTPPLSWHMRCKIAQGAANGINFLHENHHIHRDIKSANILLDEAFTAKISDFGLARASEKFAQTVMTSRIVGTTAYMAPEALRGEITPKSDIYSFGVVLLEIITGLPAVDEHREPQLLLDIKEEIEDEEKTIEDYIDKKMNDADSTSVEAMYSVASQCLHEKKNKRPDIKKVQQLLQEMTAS

[3] = target: Tyrosine-protein kinase SYK (Homo sapiens, UniProt P43405); assay: In vitro SYK Kinase Assay: SYK activity is measured by phosphorylation of a peptide substrate (Biotin-[…]) with [gamma-33P] ATP. The enzyme reaction was conducted at 20 uM ATP with 0.05 uCi [gamma-33P]ATP (2 uCi for 40 ul assay) and 10 uM peptide substrate at final volume of 40 ul in buffer containing 50 mM Hepes, pH 7.2, 1 mM dithiothreitol, 10 mM MgCl2, 100 uM Na3VO4, 0.1% BSA and 10% DMSO. The enzyme assay was carried out with human full length SYK in the presence or absence of ten compound concentrations. SYK and compound were pre-incubated for 10 minutes. Then, the enzymatic reaction was initiated by addition of ATP and peptide substrate. The reaction mixture was incubated at room temperature for 30 minutes. At the end of incubation, the reaction was terminated by transferring 25 ul of the reaction mixture to 100 ul of 10% streptavidin slurry containing 100 mM EDTA. The reaction product was captured on the affinity resin and sequentially washed on a filtration plate (Millipore, MABVNOB50) with 2M NaCl, 2M M NaCl in 1% phosphoric acid and water to remove free radio nucleotide. Then the incorporation of 33P into peptide substrate was quantified on a microplate scintillation counter.

Interleukin-1 receptor-associated kinase 1, sequence (P51617 whole entry): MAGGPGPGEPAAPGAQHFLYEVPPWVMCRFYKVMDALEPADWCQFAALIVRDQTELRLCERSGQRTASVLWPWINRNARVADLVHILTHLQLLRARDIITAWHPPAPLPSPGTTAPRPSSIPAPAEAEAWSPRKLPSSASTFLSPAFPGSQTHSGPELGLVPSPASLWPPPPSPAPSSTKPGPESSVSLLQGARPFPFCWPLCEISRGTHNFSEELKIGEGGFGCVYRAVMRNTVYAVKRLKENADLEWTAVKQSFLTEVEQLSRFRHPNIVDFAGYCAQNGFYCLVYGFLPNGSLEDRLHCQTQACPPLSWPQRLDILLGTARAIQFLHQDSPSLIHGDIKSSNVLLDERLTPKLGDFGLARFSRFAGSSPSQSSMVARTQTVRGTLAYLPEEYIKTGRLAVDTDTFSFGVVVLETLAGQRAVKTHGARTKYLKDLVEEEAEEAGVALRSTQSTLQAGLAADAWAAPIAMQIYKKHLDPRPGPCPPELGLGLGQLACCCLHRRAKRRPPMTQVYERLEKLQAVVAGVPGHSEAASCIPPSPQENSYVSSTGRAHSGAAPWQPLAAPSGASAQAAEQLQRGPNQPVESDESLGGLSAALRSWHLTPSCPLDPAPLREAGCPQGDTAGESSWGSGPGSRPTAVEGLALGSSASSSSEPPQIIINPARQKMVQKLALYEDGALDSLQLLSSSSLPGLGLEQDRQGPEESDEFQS

Question: For `O=C(Nc1cc(Cl)ccc1OC1CCC(O)CC1)c1cnn2cc(O)cnc12` (stereo not given), which IC50 [1] is on record?
Answer: 163 nM

Question: And the IC50 [2]?
Answer: 23 nM

Question: What does the source list for `O=C(Nc1cc2cccnc2cc1O[C@H]1CC[C@@H](O)CC1)c1csc2cncnc12`?
Answer: IC50 [1]: 70 nM; IC50 [2]: 7 nM

Question: `CC(O)C1CCN(c2ccc(Cl)cc2NC(=O)c2cnn3cccnc23)CC1` (stereo not given) was tested. Which IC50 [1] did it give?
Answer: 970 nM

Question: And the IC50 [2]?
Answer: 5 nM

Question: With `COc1cc2ncccc2cc1NC(=O)c1csc2cncnc12` as the molecule, how does the IC50 [2] read?
Answer: 18 nM

Question: And the IC50 [3]?
Answer: 622 nM

Question: With `COc1cc2nc(NCCO)ccc2cc1NC(=O)c1csc2cncnc12` as the molecule, how does the IC50 [1] read?
Answer: 200 nM

Question: And the IC50 [2]?
Answer: 10 nM

Question: Which IC50 [2] does the source give for `O=C(Nc1cc2cccnc2cc1N1CCCCC1)c1csc2cncnc12` here?
Answer: 12 nM

Question: What does the source list for `COc1cc2ncccc2cc1NC(=O)c1cnn2cc(O)cnc12`?
Answer: IC50 [1]: 200 nM; IC50 [2]: 9 nM

Question: Which results are given for `O=C(Nc1cc2cccnc2cc1OC1CCC(O)CC1)c1csc2cncnc12` (stereo not given)?
Answer: IC50 [1]: 123 nM; IC50 [2]: 24 nM
